These results are taken from US20250136722A1, “CYTOTOXICITY TARGETING CHIMERAS” (GLAXOSMITHKLINE INTELLECTUAL PROPERTY DEVELOPMENT LIMITED, priority 2021, published 2025).

For experiment [1], the target named is Anti-cotinine antibody (SEQ ID NO: 11 / SEQ ID NO: 12, rabbit variable region with human IgG1 Fc domain). Description: Binding of anti-cotinine antibody to ARM compounds by SPR, Biacore T200, 37° C. (Example 202). The conditions noted are these: pH 7.4, rabbit variable region/human IgG1 Fc antibody captured on protein A. Put shortly: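 Antibody captured on protein A chip. Compounds injected (3-fold, 5-point, top 200 nM) at 100 μL/min with 200 s association and 2000 s dissociation, at 37° C. in HEPES pH 7.4 buffer with 1% DMSO. Double-referenced data fit to 1:1 kinetics. Kd = koff/kon, reported as pKd, averaged over runs.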

The test system of experiment [2] is CCR2 expressing cells (CD11b+Ly6c+ Hi) in peripheral blood. Description: In vivo depletion assay, flow cytometry of peripheral blood (Example 201). Details: species or system Human CCR2 (hCCR2) knock-in mice (C57 background). The conditions noted are these: hCCR2 knock-in mice; IV 0.1 mpk compound + 10 mpk anti-cotinine antibody (SEQ ID NO: 13/14); peripheral blood at 48 hr. As for the experimental part:
Stock solution preparation: Stock solutions of compounds of Formula (I) were prepared at 20 mg/mL and 100 mg/mL in DMSO for PK/PD and dose tolerability studies respectively. Stock solutions were stored at −20° C. until further usage.
Formulations preparation: On the day of experiment, the stock solution of the compound of Formula (I) was removed from storage at −20° C. and thawed at room temperature. Anti-cotinine antibody having a heavy chain sequence of SEQ ID NO: 13 and a light chain sequence of SEQ ID NO: 14 (rabbit variable region sequence with mouse IgG2a Fc domain), if required was removed from storage at −80° C. and thawed at room temperature. Antibody vials were immediately transferred into wet ice after thawing. Compounds of Formula (I) were further diluted in DMSO as per experimental requirements.
Formulation composition: The formulation composition was Saline:DMSO:PBS. Saline was added based on the quantity required and then stock solution of the compound of Formula (I) prepared in DMSO, followed by addition of antibody in PBS. Formulations were incubated at room temperature for 30 minutes before administration to the mouse. DMSO was used at 1 to 2% (v/v) in the final formulation.
After bleeding, each mouse was sacrificed by cervical dislocation.
CCR2 depletion in peripheral blood was determined by flow cytometry. Briefly, peripheral blood was collected from all animals at the end of study termination and processed. Blood samples were lysed using 1× RBC Lysis buffer and the resulting cell pellet was washed twice in FACS buffer (HBSS containing 5% FBS). Cells were subjected to Fc blocking using mouse Fc block from Biolegend (Trustain, anti-mouse CD16/32, Cat: 101319) to block non-specific binding followed by surface staining for immune markers (CD45, CD3, CD11b, Ly6C, human CCR2). Surface staining was done for 30 minutes in ice and cells were washed twice to remove unbound antibodies. Cells were stained with 7AAD to determine viability and acquired on BD FACSVerse flow cytometer. Appropriate FMO controls and single-color controls were included in the experiment for gating and compensation respectively.
Percent depletion of CD11b+Ly6c+ Hi cells and CCR2 expression for the different treatment groups was determined.
On the technique in general: In flow cytometry, cells or beads pass a laser one at a time.

In experiment [3] the test system is endogenous target monocytes in human PBMC. Description: PBMC ex vivo monocyte depletion flow cytometry assay (Example 200). The format is cell-based. Particulars: with anti-cotinine antibody SEQ ID NO: 11/12, 18-24 hours, read-out: Ex Vivo Depletion Assay pEC50 (converted). As for the experimental part: A human PBMC (peripheral blood mononuclear cells) monocyte depletion flow cytometry assay was developed to screen compounds in a 384-well plate format. This assay incorporated endogenous natural killer cells to deplete endogenous target monocytes.
To screen compounds in the human PBMC monocyte depletion flow cytometry assay, 11-point dose-response curves were made from 1 mM stocks in neat DMSO by serially diluting an ARM compound of Formula (I) four-fold into a 384-well plate row-wise. These serially diluted compounds were then stamped into a flat bottom polypropylene 384-well plate (Greiner Bio-One) at 100 nL/well. Fifty microliters of 30 μg/mL anti-cotinine antibody having a heavy chain sequence of SEQ ID NO: 11 and a light chain sequence of SEQ ID NO: 12 (rabbit variable region with human IgG1 Fc domain containing a DE mutation (S239D/1332E)) that had been diluted in assay medium (RPMI 1640 (Gibco) containing 10% fetal bovine serum (Gibco), 1% Glutamax (Gibco) and 1% sodium pyruvate (Corning) was added to the wells of the plate. The plate was centrifuged for 1 min at 500 rpm (revolutions per minute) and then shaken for 5 min at room temperature. The plate was incubated for 15 minutes at 37° C./5% CO2.
Frozen PBMC cells (HemaCare BioResearch) were thawed and centrifuged at 1,200 rpm for 4 minutes. The cells were diluted to a cell density of 2×10^6 cells/mL in assay medium. Fifty microliters of the diluted cells were added to the wells of the plate. The plate was centrifuged for 1 min at 500 rpm and incubated for 18-24 hours at 37° C./5% CO2.
After 18-24 hours incubation, 2 μL of 6.25 μg human FC block (BD Pharmingen) that was diluted in assay medium was added to the wells of the plate. The plate was centrifuged for 1 minute at 500 rpm and then incubated at room temperature for 15 minutes. Five microliters of 750 nM Helix NP NIR (Biolegend) that had been diluted in assay medium was added to the wells of the plate. Nine microliters of antibody cocktail containing 1/5 diluted fluorescein isothiocyanate (FITC) labeled anti-CD45 antibody (Beckman Coulter), PC7 labeled anti-CD14 antibody (Beckman Coulter) and phycoerythrin (PE) anti-CD4 antibody (Beckman Coulter) was then added to the wells of the plate. The plate was centrifuged for 1 min at 500 rpm and incubated for 30 minutes at 4-8° C. Samples from the plate were run on BD FACS Canto II flow cytometer and data was analyzed using FlowJo software.
ARMs compounds of Formula (I) of the invention were tested for the ability to deplete monocytes in the above assay in one or more experimental runs and the results are shown in Table 3 below. Potency of the compounds of the invention is reported as a pEC50 value. The pEC50 value is the negative log of the EC50 value, wherein the EC50 value is the half maximal effective concentration measured in molar (M). For compounds tested in more than one experimental run, the pEC50 value is reported as an average or as the individual values measured

Take `CC(C)N(C)[C@@H]1CC[C@H](N2CC[C@H](Nc3ncnc4ccc(C(F)(F)F)cc34)C2=O)[C@H](NC2CCN(C(=O)CCOCCOCCOCCOCCNC(=O)[C@H]3CC(=O)N(C)[C@@H]3c3cccnc3)CC2)C1` [Example 69]: the “pKd of Antibody for ARM Compound of Formula (I)” value in experiment [1] is 9.321. Further, the “% Depletion of CCR2 expressing cells” value in experiment [2] was determined as 98.59%. Moreover, the EC50 in experiment [3] was 1.58 nM.

With `CC(C)N(C)[C@@H]1CC[C@H](N2CC[C@H](Nc3ncnc4ccc(C(F)(F)F)cc34)C2=O)[C@H](NC(=O)[C@H]2CC[C@H](N3CCN(S(=O)(=O)C4CCN(C(=O)[C@H](C)NC(=O)[C@H]5CC(=O)N(C)[C@@H]5c5cccnc5)CC4)CC3)CC2)C1` [Example 70, (2S,3S)-N-((S)-1-(4-((4-((1R,4S)-4-(((1R,2S,5R)-5-(isopropyl(methyl)amino)-2-((S)-2-oxo-3-((6-(trifluoromethyl)quinazolin-4-yl)amino)pyrrolidin-1-yl)cyclohexyl)carbamoyl)cyclohexyl)piperazin-1-yl)sulfonyl)piperidin-1-yl)-1-oxopropan-2-yl)-1-methyl-5-oxo-2-(pyridin-3-yl)pyrrolidine-3-carboxamide], the “% Depletion of CCR2 expressing cells” value in experiment [2] is listed as 30.51%. The EC50 in experiment [3] was 0.1 nM.

Consider `CC(C)N(C)[C@@H]1CC[C@H](N2CC[C@H](Nc3ncnc4ccc(C(F)(F)F)cc34)C2=O)[C@H](NC(=O)[C@H]2CC[C@@H](N3CCN(S(=O)(=O)C4CCN(C(=O)[C@H](C)NC(=O)[C@H]5CC(=O)N(C)[C@@H]5c5cccnc5)CC4)CC3)CC2)C1` [compound 71], for which the “% Depletion of CCR2 expressing cells” value in experiment [2] is 35.25%. In experiment [3], the EC50 is 0.794 nM.
